Assay results from article PMC10223356, “Tetrasubstituted Pyrrole Derivative Mimetics of Protein–Protein Interaction Hot-Spot Residues: A Promising Class of Anticancer Agents Targeting Melanoma Cells” (Molecules, 2023).
≈ marks a conversion by molar mass, not a printed value.

Legend:
[1] = Solubility assay in PBS by UV light scattering (precipitation point); format: physicochemical; conditions: for solubility at 1 min: PBS (phosphate-buffered saline), aqueous buffer, kinetic from dmso stock, PBS solution pH = 7.4, 37 °C, mean ± SEM (n = 3)
Description: The solubility of all compounds was evaluated in a PBS solution (phosphate-buffered saline; Sigma-Aldrich, Merck KGaA, Darmstadt, Germany, pH = 7.4) by means of UV spectroscopy.
For each compound, the precipitation point was quantified measuring the increasing of the UV absorption of PBS in the range of 600–800 nm after successive additions of aliquots of a DMSO solution at specific concentration. Because of the absence of bands in the selected UV region, the increase in absorption is due to light scattering caused by the formation of particulate in the PBS. UV absorption data were graphically reported vs. μL of the added DMSO solution (x-axis), and the precipitation point was identified as the intersect point of the bilinear fitted curve. The x coordinate of the intersect point corresponded to the microlitres of DMSO added to PBS (1.4 mL) when the precipitation occurred, from which the concentration of the molecule in PBS at the precipitation point is readily calculated.
The solubility of each molecule in PBS was quantified measuring the UV scattering in the range of 600–800 nm (JASCO UV-530 spectrophotometer, equipped with ETC-505 T temperature controller). DMSO solutions of 1, 9a, 9b, 9c, 9d, 9e, 9f, ±10b, and nutlin-3a were used at a final concentration of 2.6 mM, whereas those of 9g, 9h, and 9i were used at 1.0 mM. A total of 1400 µL of degassed PBS was placed in a quartz cuvette (o.l. 0.5 cm), equilibrated 5 min at 37 °C, and then titrated by 7–10 successive additions of 0.5 µL or 0.3 µL from the DMSO solution. Each titration was performed without removing the cuvette from the UV cell and, after each addition, the solution was equilibrated 1 min a 37 °C under gently stirring before the acquisition of the UV data. For each molecule, the solubility was expressed as the mean ± SEM (n = 3).

[2] = test system: human epithelial melanoma A375 cells; assay: Cell survival index (MTT + cell count) bioscreen, A375; format: cell-based; conditions: for IC50: A-375, human melanoma cell line, 48 h of incubation, cell survival index, mean ± SEM (n = 30); for SI (selectivity index): SI = IC50 L6/IC50 A375
Description: (§1) Cell growth inhibition activity of compounds 1, 9a–i, 10a,b, and the positive control nutlin-3a was evaluated following 48 h of incubation with increasing concentrations of the compounds (from 1.5 to 25 µM) in human cancer (A375 and HCT-116) and healthy (L6) cell lines. […] The evaluation of the “cell survival index” show a typical concentration-dependent sigmoid trend, achieving IC50 values in the low micromolar range (Figure S2).
(§2) Human epithelial melanoma A375 cells, human colorectal carcinoma HCT-116 cells, and normal rat L6 myoblast were grown in DMEM (Invitrogen, Paisley, UK) supplemented with 10% fetal bovine serum (FBS, Cambrex, Verviers, Belgium), L-glutamine (2 mM, Sigma, Milan, Italy), penicillin (100 units/mL, Sigma), and streptomycin (100 μg/mL, Sigma) and cultured in a humidified 5% carbon dioxide atmosphere at 37 °C, according to ATCC recommendations. A375 and HCT-116 were used as preclinical human cancer models in vitro, while rat L6 were used as control healthy cells.
(§3) The antiproliferative activity of 1, 9a–i, and 10a,b was investigated through the estimation of a “cell survival index”, arising from the combination of cell viability evaluation with cell counting, as previously reported. The cell survival index is calculated as the arithmetic mean between the percentage values derived from the MTT assay and the automated cell count. Cells were inoculated in 96-microwell culture plates at a density of 10^4 cells/well and allowed to grow for 24 h. The medium was then replaced with fresh medium and cells were treated for an additional 48 h with a range of concentrations (from 1.5 to 25 μM) of 1, 9a–i, and 10a,b. Using the same experimental procedure, cell cultures were also incubated with DMSO as negative controls (vehicle), as well as with cisplatin (cDDP) and nutlin-3a as positive controls for cytotoxic and antiproliferative effects, respectively. Cell viability was evaluated using the MTT assay procedure. Cell number was determined by TC20 automated cell counter (Bio-Rad, Milan, Italy), providing an accurate and reproducible total count of cells and a live/dead ratio in one step by a specific dye (trypan blue) exclusion assay. The calculation of the concentration required to inhibit the net increase in the cell number and viability by 50% (IC50) is based on plots of data (n = 6 for each experiment) and repeated five times (total n = 30). IC50 values were calculated from a dose–response curve by nonlinear regression using a curve-fitting program, GraphPad Prism 5.0, and are expressed as mean values ± SEM (n = 30) of five independent experiments.

[3] = test system: normal rat L6 myoblast; assay: Cell survival index (MTT + cell count) bioscreen, L6; format: cell-based; conditions: healthy rat myoblast cell line, 48 h of incubation, mean ± SEM (n = 30), read-out: L6 IC50
Description: as §1, §2, §3

[4] = test system: human colorectal carcinoma HCT-116 cells; assay: Cell survival index (MTT + cell count) bioscreen, HCT-116; format: cell-based; conditions: HCT-116, 48 h, human colon cancer cell line, 48 h of incubation, mean ± SEM (n = 30)
Description: as §1, §2, §3

[5] = DMSO solution 2.6 mM added to 1400 µL PBS
[6] = DMSO solution 1.0 mM added to 1400 µL PBS, Abs 640 nm

Row | Compound | Volume of DMSO solution added to PBS at the precipitation point [1, 5] | solubility at 1 min [1] | Volume of DMSO solution added to PBS at the precipitation point [1, 6] | IC50 [2] | SI (selectivity index) [2] | CC50 [3] | IC50 [4]
1 | CC(=O)c1cc(C(=O)NCc2cccc(Br)c2)n(Cc2ccc(C)cc2)c1-c1ccccc1 [compound 9g, 4-acetyl-N-(3-bromobenzyl)-1-(4-methylbenzyl)-5-phenyl-1H-pyrrole-2-carboxamide] |  | 1.5 ± 0.2 µM (≈ 0.752 µg/mL) | 2,1 µL | 18 ± 5 µM | 3.9 | 71 ± 5 µM | 34 ± 6 µM
2 | COc1ccc(Cn2c(C(=O)NCc3cccc(Cl)c3)cc(C(=O)c3ccccc3)c2C)cc1 [compound 9b, 4-Benzoyl-N-(3-chlorobenzyl)-1-(4-methoxybenzyl)-5-methyl-1H-pyrrole-2-carboxamide] | 1,7 µL | 3.1 ± 0.2 µM (≈ 1.47 µg/mL) |  | 24 ± 14 µM | 1.7 | 40 ± 5 µM | 46 ± 18 µM
3 | Cc1c(C(=O)c2ccccc2)cc(C(=O)NCc2ccc(Cl)cc2)n1Cc1ccc(Cl)cc1 [compound 9e, 4-Benzoyl-N,1-bis(4-chlorobenzyl)-5-methyl-1H-pyrrole-2-carboxamide] | 1,93 µL | 3.5 ± 0.3 µM (≈ 1.67 µg/mL) |  | 23 ± 6 µM | 1.6 | 38 ± 2 µM | 34.6 ± 6 µM
4 | Cc1ccc(Cn2c(C(=O)NCc3ccc(Cl)cc3)cc(C(=O)c3ccccc3)c2C)cc1 [compound 9d, 4-Benzoyl-N-(4-chlorobenzyl)-5-methyl-1-(4-methylbenzyl)-1H-pyrrole-2-carboxamide] | 1,67 µL | 3.1 ± 0.2 µM (≈ 1.42 µg/mL) |  | 15 ± 5 µM | 1.7 | 25 ± 6 µM | 35.4 ± 6 µM
5 | COc1ccc(C2=N[C@H](c3ccc(Cl)cc3)[C@H](c3ccc(Cl)cc3)N2C(=O)N2CCNC(=O)C2)c(OC(C)C)c1 [nutlin-3a, reference compound] |  | 2.4 ± 0.2 µM (≈ 1.4 µg/mL) |  | 15 ± 3 µM | 1.2 | 18 ± 4 µM | 12.5 ± 5 µM

Now from value to compound, other results behind:

Row | Volume of DMSO solution added to PBS at the precipitation point [1, 5] | solubility at 1 min [1] | Volume of DMSO solution added to PBS at the precipitation point [1, 6] | Compound | IC50 [2] | SI (selectivity index) [2] | CC50 [3] | IC50 [4]
6 | 1,41 µL | 2.6 ± 0.1 µM (≈ 1.24 µg/mL) |  | Cc1c(C(=O)c2ccccc2)cc(C(=O)NCc2cccc(C(F)(F)F)c2)n1Cc1ccccc1 [compound 9f, 4-Benzoyl-1-benzyl-5-methyl-N-(3-(trifluoromethyl)-benzyl)-1H-pyrrole-2-carboxamide] | 27 ± 8 µM | 1.3 | 35 ± 7 µM | 28.4 ± 7 µM
7 |  | < 1 µM | 0.84 µL | Cc1ccc(Cn2c(C(=O)NCc3cccc(Cl)c3)cc(C(=O)c3ccc(C)cc3)c2C)cc1 [compound 9h, N-(3-chlorobenzyl)-5-methyl-4-(4-methylbenzoyl)-1-(4-methylbenzyl)-1H-pyrrole-2-carboxamide] | 24 ± 6 µM | 1.7 | 42 ± 7 µM | 56.3 ± 15 µM
8 | 3,6 µL | 6.7 ± 0.6 µM (≈ 3.08 µg/mL) |  | Cc1ccc(Cn2c(C(=O)NCc3cccc(Cl)c3)cc(C(O)c3ccccc3)c2C)cc1 (racemic) [(±)10b, (±)N-(3-chlorobenzyl)-4-(hydroxy(phenyl)methyl)-5-methyl-1-(4-methylbenzyl)-1H-pyrrole-2-carboxamide] | 15 ± 5 µM | 3.6 | 54 ± 6 µM | 25 ± 5 µM
9 | 2,14 µL | 3.9 ± 0.1 µM (≈ 1.86 µg/mL) |  | Cc1c(C(=O)c2ccccc2)cc(C(=O)NCc2cccc(Cl)c2)n1Cc1ccc(Cl)cc1 [compound 9a, 4-Benzoyl-N-(3-chlorobenzyl)-1-(4-chlorobenzyl)-5-methyl-1H-pyrrole-2-carboxamide] | 18 ± 4 µM | 2.7 | 48 ± 5 µM | 36.4 ± 8 µM
